According to patent US4977273A, “Fluorine-containing 2-nitroimidazole derivatives” (Kyoto University of Honmachi, priority 1988, dated 1990):

Columns and labels:
[1] = tested on: Chinese hamster V-79 cells; test: Radiosensitization effect on cells (ER in vitro); type: cell-based; conditions: 1.0 mM, 60 min at 37° C., nitrogen (hypoxic), X-ray 1.6 Gy/min
Experimental: Radiosensitization effect on cells (ER in vitro)
A solution of a predetermined concentration (1.0 mM) of a compound to be examined in a medium was added to the dish. After standing for 60 minutes at 37° C., the dish was placed in a closed vessel at room temperature.
After the irradiation, the cells were washed with phosphate buffer and digested with trypsin into single cells. Then, a predetermined amount of the cells was introduced into 5 ml of a culture medium in a culture dish and cultured for 7 days at 37° C. After staining and washing with water, the number of colonies formed was counted.
For comparison, the irradiation was carried out in the nitrogen atmosphere or in the air after adding the medium without the test compound.

EMT-6 tumor cells = test: Radiosensitization effect on tumor transplanted in animal (ER in vivo); design: species or system male Bal/c mouse; conditions: EMT-6 tumor in mouse, 100 mg/kg intraperitoneal, X-ray after 40 minutes at 450 rad/min. for 5 minutes
Experimental: Radiosensitization effect on tumor transplanted in animal (ER in vivo)
To both thighs of male Bal/c mouse (8 weeks; 4 mice in a group), 10^5 of EMT-6 tumor cells were subcutaneously inoculated. After the diameter of the tumor reached about 1 cm, a solution of a compound to be examined in saline in an amount of 100 mg of the compound per kg was intraperitonealy administered. After 40 minutes, X-ray was irradiated at 450 rad/min. for 5 minutes and then the mouse was sacrificed.
After the whol body of the mouse was sterilized with 70% ethanol, the tumor was taken out. The tissue was homogenized and then digested by stirring for 50 minutes at 37° C. with adding 22 ml of trypsin. The number of cells in the supernatant was counted. A predetermined amount of the cells was introduced in a plastic plate having a diameter of about 5 cm. To the plate, 5 ml of medium was added and cultured in a CO2 incubator. The plate containing the irradiated cells was removed from the incubator after 9 days, while a comparison dish containing unirradiated cells was incubated for 10 days. The cells were fixed by methanol and strained by Giemsa stain. Then, the number of colonies formed were counted.
The survival rate was calculated with using the data of the unirradiated cells as control.

in vivo = conditions: mouse, female ICR mice of 5 weeks
hypoxic cells = conditions: compared with no Misonidazole; cited from earlier work
[2] = administered in human beings; cited from earlier work
[3] = hardly administered in an effective amount; cited from earlier work

| SMILES | ER in vitro [1] | ER in vivo (EMT-6 tumor cells) | LD50 (in vivo) [mg/kg] | hypoxic cell sensitizing effectiveness (hypoxic cells) | sensitizing effect in human beings [2] | neurotoxicity [3] |
| --- | --- | --- | --- | --- | --- | --- |
| NC(=O)CNC(=O)C(F)(F)Cn1ccnc1[N+](=O)[O-] [(48)] | 1.61 | 1.49 | 2200 | – | – | – |
| NC(=O)C(F)(F)COCC(F)(F)Cn1ccnc1[N+](=O)[O-] [(46), 3-[3'-(2"-nitroimidazolyl)-2',2'-difluoropropoxy]2,2-difluoropropionylamide] | 1.58 | 1.45 | – | – | – | – |
| COC(=O)OCCNC(=O)C(F)(F)Cn1ccnc1[N+](=O)[O-] [(51), methyl 3-(2'-nitroimidazolyl)-2,2-difluoropropionamidoethoxyformate] | – | – | > 3000 | – | – | – |
| O=C(CCNC(=O)C(F)(F)Cn1ccnc1[N+](=O)[O-])NCCO [(47), 3-[3'-(2"-nitroimidazolyl)-2',2'-difluoropropionamido]propionic acid hydroxyethylamide] | 1.43 | 1.38 | > 2000 | – | – | – |
| O=C(COCC(F)(F)Cn1ccnc1[N+](=O)[O-])NCCO [(43), 2[3'-(2"-nitroimidazolyl)-2',2'-difluoropropoxy]acetic acid hydroxyethylamide] | 1.54 | 1.38 | > 2000 | – | – | – |
| COCC(O)Cn1ccnc1[N+](=O)[O-] (stereo not drawn) [Comparative (1), 1-(2-Nitro-1-imidazolyl)-3-methoxy-2-propanol] | 1.50 | 1.43 | – | about twice as effective as when no Misonidazole is used | No sensitizing effect was confirmed | strong neurotoxicity |
| NC(=O)C(F)(F)CNC(=O)C(F)(F)Cn1ccnc1[N+](=O)[O-] [(24), 3-[3'-(2"-nitroimidazolyl)-2',2'-difluoropropionylamino]-2,2-difluoropropionic acid amide] | 1.76 | 1.41 | 2600 | – | – | – |
| NC(=O)C(F)(F)Cn1ccnc1[N+](=O)[O-] [(28), 3-(2'-nitroimidazolyl)-2,2-difluoropropionic acid amide] | 1.48 | 1.32 | 1100 | – | – | – |
| NC(=O)CCNC(=O)C(F)(F)Cn1ccnc1[N+](=O)[O-] [(22), 3-[3'-(2"-nitroimidazolyl)-2',2'-difluoropropionylamino]propionic acid amide] | 1.46 | 1.58 | 2800 | – | – | – |
| O=[N+]([O-])c1nccn1CC(F)COCCO (stereo not drawn) [(11), 1-(2'-fluoro-4'-oxa-6'-hydroxyhexcyl)-2-nitroimidazole] | 1.66 | 1.52 | – | – | – | – |
| O=C(COCC(F)(F)Cn1ccnc1[N+](=O)[O-])NO [(44)] | 1.68 | 1.48 | – | – | – | – |
| O=C(NCCO)C(F)(F)COCC(F)(F)Cn1ccnc1[N+](=O)[O-] [(45), 3-[3'-(2"-nitroimidazolyl)-2',2'-difluoropropoxy]-2,2-difluoropropionic acid hydroxyethylamide] | 1.63 | 1.40 | > 1600 | – | – | – |
| O=[N+]([O-])c1nccn1CC(F)COCC(O)CO (stereo not drawn) [(1), 1-(2'-fluoro-4'-oxa-6',7'-dihydroxyheptyl)-2-nitroimidazole] | 1.49 | 1.38 | 2700 | – | – | – |
